Data reported in article PMC12903969, “Discovery of a Novel and Potent Kir4.1 Inhibitor as a Safe and Rapid‐Onset Antidepressant Agent in Mice” (Advanced Science, 2025).
“And” between values parts separate entries of the source, which are not always exact repeats. Equal entries are not always repeated. Where two headings read alike, the source gives them in different places.

How the values were obtained:
[1] = test system: mice; assay: Shuttle box test (SBT); assay type: in vivo
Method: This test was designed to measure learning and memory function in rodents. The shuttle box consists of two compartments connected by a freely passable gate. The mice were allowed to explore the test chamber freely for 5 min before the test to eliminate exploratory reflexes. Each mouse was placed in one compartment of the shuttle box. The conditioning protocol began with a 5‐s conditioned stimulus presentation of light (200 lux) and auditory tone (100 dB, 1000 Hz), followed immediately by a 3‐s footshock (300 µA) unconditioned stimulus. Escape to the opposite compartment during the conditioned stimulus presentation was scored as an active avoidance response, whereas escape occurring only after shock onset was recorded as […]. […] Each test session consisted of 40 trials with 10‐s inter‐trial intervals, with the number of active avoidance responses systematically recorded.

[2] = test system: mice; assay: Novel object recognition test (NOR); assay type: in vivo; conditions: chronic 10 mg kg−1 per day
Method: This test was designed to assess memory in rodents. The mice were individually exposed to familiar and novel objects. The test consists of three phases: habituation, training, and retention. During habituation, each animal freely traversed an empty cubic arena (≈40 cm per side) for 5 min, then was returned to its home cage. In the subsequent training phase, two identical rectangular objects were fixed 10 cm from opposite walls, and the mouse, introduced with its snout directed toward the center of the distal wall, was allowed to investigate the objects for 5 min. One hour later, in the retention phase, one of the familiar objects was exchanged for a geometrically distinct but comparably sized novel object, and exploration was recorded for 5 min. The positions of familiar and novel objects were systematically randomized across trials to prevent spatial bias. Object exploration was quantified as the duration of direct nose/mouth orientation toward objects within ≤ 2 cm, excluding instances of turning away or sitting on objects. Recognition memory was assessed using the discrimination ratio, calculated as N/(N + F) × 100%, where N represents the exploration time of the novel object and F denotes the exploration time of the familiar object.

[3] = test system: Kir4.1 cKO mice; assay: NSFT in astrocyte-specific Kir4.1 cKO mice; assay type: in vivo; conditions: 10 mg kg−1 i.p.
Excerpt: Male C57BL/6J mice (6–10 weeks old) and male CD‐1 mice (4–6 months old) were purchased from Shanghai Shengchang Biotechnology Co., Ltd. Kcnj10 ^flox/flox mice were generated by the Cyagen Company (Suzhou, China). The Cas9 protein, two gRNAs (gRNA‐A1: […], gRNA‐A2: […]) and a donor vector containing two loxP sequences flanking exon 2 of mouse Kcnj10 were co‐injected into fertilized eggs. The embryos were transferred to recipient female mice to obtain F0 mice. The genotype was confirmed by PCR using two pairs of primers (F1: 5’‐[…]‐3’, R1: 5’‐[…]‐3’; F2: 5’‐[…]‐3’, R2: 5’‐[…]‐3’) and sequencing. The F0 founder mice were mated with C57BL/6J mice to produce heterozygous F1 offspring. Subsequent intercrosses of F1 heterozygous mice ultimately produced F2 homozygous mice with the Kcnj10 ^flox/flox genotype. Tamoxifen‐induced conditional transgenic mice with Kir4.1 deletion in astrocytes were generated by crossing Aldh1l1‐Cre/ERT2 mice with homozygous Kcnj10 ^flox/flox mice.^[ [32] ^] […]
The mice were individually housed in new cages and deprived of food for 24 h. […] The latency to start chewing food was recorded within 5 min. Immediately thereafter, the mice were placed back in their home cage with pre‐measured food, and the amount consumed in the next 5 min was used as a baseline to account for appetite changes that might affect the outcome.

[4] = target: T1, Kir4.1 T128A (Homo sapiens, UniProt P78508, T128A); assay: Whole-cell patch clamp, Kir4.1 point mutant T128A; assay type: cell-based
T1 construct: expressed in transfected cells; host or cells: CHO-K1
T1 sequence (P78508 1-379 T128A): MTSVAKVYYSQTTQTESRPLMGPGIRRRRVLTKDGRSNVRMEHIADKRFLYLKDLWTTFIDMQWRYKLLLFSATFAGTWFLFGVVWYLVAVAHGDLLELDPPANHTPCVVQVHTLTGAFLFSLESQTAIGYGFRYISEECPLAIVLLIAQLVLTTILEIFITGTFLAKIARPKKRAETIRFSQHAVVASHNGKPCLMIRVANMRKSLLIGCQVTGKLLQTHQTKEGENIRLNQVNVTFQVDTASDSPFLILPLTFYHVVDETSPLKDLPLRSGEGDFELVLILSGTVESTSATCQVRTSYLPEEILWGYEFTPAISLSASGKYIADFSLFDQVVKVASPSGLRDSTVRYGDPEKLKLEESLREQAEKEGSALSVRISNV
Method: Plasmids encoding WT human potassium channels Kir1.1, Kir2.1, Kir2.2, Kir4.1, and Kir4.2 were obtained from the Beijing Genomics Institute. All point mutations were constructed using the QuickChange II Site‐Directed Mutagenesis Kit (Stratagene) and subsequently verified by sequencing.
CHO‐K1 cells were maintained in DMEM/F12 growth medium containing 10% fetal bovine serum. Plasmids encoding the target genes (3600 ng) and enhanced green fluorescent protein (400 ng) were cotransfected into cells using Lipofectamine 2000 (Invitrogen) in accordance with the manufacturer's instructions. Cells were seeded onto poly‐d‐lysine (PDL)‐coated glass coverslips 1 h prior to electrophysiological recordings. All cells were cultured under standard conditions of 5% CO2 at 37 °C.
Whole‐cell patch‐clamp recordings were obtained either in transiently transfected CHO‐K1 cells or in primary cultured astrocytes at room temperature using standard patch‐clamp techniques with an Axopatch‐700B amplifier (Axon Instruments). The signals were filtered at 2 kHz and sampled at 20 kHz using the Digidata 1440A interface (Axon Instruments). The resistance of borosilicate glass pipettes was typically 2–4 MΩ when filled with the internal solution. Drug application was facilitated using a BPS perfusion system (ALA Scientific Instruments). Macroscopic currents generated by expressed potassium channels were recorded under the voltage‐clamp conditions with an internal pipette solution composed of (in mM): 140 KCl, 5 NaCl, 1 CaCl2, 1 MgCl2, 10 HEPES, and 10 EGTA, pH 7.2 adjusted with KOH. The external solution contained (in mM): 140 NaCl, 5 KCl, 2 CaCl2, 1 MgCl2, 10 glucose, and 10 HEPES, pH 7.4 adjusted with NaOH. Currents were elicited with a hyperpolarized voltage at −120 mV from the holding potential of −80 mV, followed by a ramp voltage depolarizing to +50 mV. Astrocytic resting membrane potentials were recorded under current‐clamp conditions (I = 0 pA) using standard internal and external solutions, determined immediately after achieving whole‐cell mode.

## c1ccc2c(c1)oc1ccc(Nc3ccnc(NCCCN4CCOCC4)n3)cc12 [JX3212, N^4-(dibenzo[b,d]furan-2-yl)-N^2-(3-morpholinopropyl)pyrimidine-2,4-diamine]
[1]; chronic 10 mg kg−1 per day
  shuttle box active avoidance responses (in words): no significant differences
[1]; chronic 10 mg/kg per day (Fig 5G)
  SBT active avoidance responses, single mice: 22 and 29 and 31 and 32 and 21 and 24 and 28 and 25
[2]
  NOR discrimination ratio vs vehicle (in words): showed no effects
[3]
  NSFT latency in Kir4.1 cKO mice vs vehicle (in words): comparable latencies
[4]; 3 µM, mean ± SEM, read-out: current inhibition, Kir4.1 T128A
  inhibition at 3 µM: 33.9 ± 4.58%
[4]; JX3212 3 µM (Fig 2D)
  Mutation: T128A inhibition, single recordings: 37.4256 and 28.9608 and 38.1757
[4]; JX3212 3 µM (Fig 2D), read-out: Mutation: T128A inhibition, single recordings
  inhibition at 3 µM: 31.1%
